Assay results as given in BigSolDB 2.1.

Clc1ncnc2nc[nH]c12
solubility (mole fraction)
Settings | 283.15 K | 288.15 K | 293.15 K | 298.15 K | 303.15 K | 308.15 K | 313.15 K | 318.15 K | 323.15 K | 328.15 K
in DMAc | 0.0175 | 0.0217 | 0.0267 | 0.0334 | 0.0411 | 0.0504 | 0.061 | 0.074 | 0.0893 | 0.107
in DMF | 0.0555 | 0.0645 | 0.075 | 0.0871 | 0.0995 | 0.114 | 0.129 | 0.147 | 0.165 | 0.186
in ethanol | 0.0087 | 0.0103 | 0.0122 | 0.0144 | 0.0168 | 0.0195 | 0.0226 | 0.026 | 0.0296 | 0.0338
in methanol | 0.0112 | 0.0132 | 0.0153 | 0.0178 | 0.0204 | 0.0234 | 0.0268 | 0.0304 | 0.0345 | 0.0389
in water | 0.00051 | 0.000555 | 0.000601 | 0.000658 | 0.000709 | 0.000761 | 0.000815 | 0.000873 | 0.000935 | 0.000994
